Measured values: US6875581B1, “Method for screening of modulators of calcineurin activity” (Genopia Biomedical GmbH, priority 1998, dated 2005)

Assays:
calcineurin [1] = assay: Phosphotyrosine phosphatase assay with the substrate fluoresceinmonophosphate (FMP); format: biochemical; conditions: FMP as substrate, Lineweaver-Burk method
Experimental: 20. Calcineurin phosphatase assay—100 ng-4 μg recombinant calcineurin (calcineurin-A/B heterodimer), 100 ng-1 μg purified bovine brain calcineurin (Sigma Aldrich, Deisenhofen, Germany) or 100 μg homogenized tissue or cell extracts were used for classical calcineurin phosphatase assays. 100 μg cells or tissue were homogenized exactly as described (Stemmer et al., 1995). Partly purified and redox sensitive calcineurin was prepared by centrifugation at 14,000 rpm at 4° C. for 10 min (Eppendorf centrifuge 5417R) and the resulting supernatant was separated on a 1.5×10 cm Sephadex-G50 gelfiltration column as described (Stemmer et al., 1995), (Gold et al., 1997). […] After starting the enzymatic reaction with para-nitrophenylphosphate or fluoresceinmonophosphate the absorbance at 405 nm (para-nitrophenylphosphate) or fluorescence λ exication=485 nm; λ emission=520 nm) was monitored over 20 min at 30° C. using a UV/VIS/fluorescence microplate photometer (Biolumin 960 kinetic fluorescence/absorbance photometer, Molecular Dynamics). […] The protective effect of CuZnSOD against redox inactivation of calcineurin was determined by addition of 3 μg recombinant human wild-type or mutated CuZnSOD (constant CuZnSOD protein) or addition of 1.67 units of recombinant human wild-type or mutated CuZnSOD (constant CuZnSOD activity). […] The quantity of released phosphate was determined by a scintillation counting. […]

[2] = SOD assay (enzymatic activity of the CuZnSOD proteins); format: biochemical
Experimental: 8. SOD assay and activity staining—Enzymatic activity of the CuZnSOD proteins were either analyzed by 10% native gel electrophoresis and activity staining with nitrotetrazolium blue dye or by a quantitative spectrophotometrically assay according to published protocols (Beauchamp and Fridovich, 1971; Nebot et al., 1993). Protein yields were determined by the Bradford method (Protein assay kit, BioRAD, Hercules, Calif., USA). The concentration of purified CuZnSOD was determined spectrophotometrically using the extinction coefficient 265=1.84×10^4 M^−1 cm^−1.

calcineurin [3] = assay: Protective effect of CuZnSOD against calcium induced redox inactivation of calcineurin (FK506 inhibitable RII-phosphopeptide activity); format: biochemical; conditions: 20 min vs 0 min; for Percentage of FK506 inhibitable RII-phosphopeptide activity after 20 min compared with the activity at 0 min, constant protein (3 μg): 3 μg CuZnSOD; for Percentage of FK506 inhibitable RII-phosphopeptide activity after 20 min compared with the activity at 0 min, constant activity (1.67 U): 1.67 U CuZnSOD
Experimental: 20. Calcineurin phosphatase assay—100 ng-4 μg recombinant calcineurin (calcineurin-A/B heterodimer), 100 ng-1 μg purified bovine brain calcineurin (Sigma Aldrich, Deisenhofen, Germany) or 100 μg homogenized tissue or cell extracts were used for classical calcineurin phosphatase assays. 100 μg cells or tissue were homogenized exactly as described (Stemmer et al., 1995). Partly purified and redox sensitive calcineurin was prepared by centrifugation at 14,000 rpm at 4° C. for 10 min (Eppendorf centrifuge 5417R) and the resulting supernatant was separated on a 1.5×10 cm Sephadex-G50 gelfiltration column as described (Stemmer et al., 1995), (Gold et al., 1997). Phosphotyrosine phosphatase assay was performed in microplates (100 μl total assay volume) either using 30 μM fluoresceinmonophosphate or 20 mM para-nitrophenylphosphate (Sigma Aldrich, Deisenhofen, Germany); 10 μl recombinant, purified or partly purified and assay buffer (25 mM Tris/HCl, pH 7; 2 mM CaCl2; 0.1 μM calmodulin; 25 μM FK506). After starting the enzymatic reaction with para-nitrophenylphosphate or fluoresceinmonophosphate the absorbance at 405 nm (para-nitrophenylphosphate) or fluorescence λ exication=485 nm; λ emission=520 nm) was monitored over 20 min at 30° C. using a UV/VIS/fluorescence microplate photometer (Biolumin 960 kinetic fluorescence/absorbance photometer, Molecular Dynamics). Phosphoserine phosphatase assay was performed as described (Hubbard and Klee, 1991), (Wang et al., 1996). […] The protective effect of CuZnSOD against redox inactivation of calcineurin was determined by addition of 3 μg recombinant human wild-type or mutated CuZnSOD (constant CuZnSOD protein) or addition of 1.67 units of recombinant human wild-type or mutated CuZnSOD (constant CuZnSOD activity). The reaction mixture was incubated for 2 min at 30° C. and stopped with 100 mM potassium phosphate/5% TCA. The reaction mixture was passed through a 0.5 ml ion-exchange column (Dowex; AG 50W-X8, BioRad) and the unbound phosphate eluted with 0.5 ml water. The quantity of released phosphate was determined by a scintillation counting.
Protective Effect of CuZnSOD of Calcium Induced Inactivation of Calcineurin
Percentage of FK506 inhibitable RII-phosphopeptide activity after 20 min compared with the activity at 0 min

[4] = tested on: calcineurin-A/B heterodimer; assay: Laser fluctuation correlation spectroscopy, binding of fluorescence labeled CuZnSOD to calcineurin; parameters: species or system human; conditions: labeled CuZnSOD alone 41 kDa; expected 114 kDa
From the text: 21. High Throughput BioAssay using recombinant calcineurin-A, recombinant calcineurin-B, calmodulin and recombinant CuZnSOD (analytical assay to identify activators or inhibitors of CuZnSOD/calcineurin interaction)—Laser fluctuation correlation spectroscopy (FCS) is a useful tool to quantify ligand—ligand interactions. The fluorescence F(t) of a optical well defined volume element which is excitated by a confocal laser is monitored as a function of time. The temporal autocorrelation of the fluorescence fluctuation δ F(t) yields the time scale of this dynamics and the average number of independent fluorophores in the probe volume. If the fluorescene fluctuation arise from diffusive motion and from fluorescence sensitive reaction, fluorescent fluctuation correlation function signal is approximated by the formula: GDR(τ)=GDiff(τ)*[1+A*exp(−kR*τ)] • τ=fluorescence correlation time • kR=apparent binding constant of the fluorescent labeled ligand • A=equilibrium coefficent dependent constant
If one measurement is performed with a solution only containing the fluorescent labeled ligand and a second measurement is performed with a solution containing the fluorescent labeled ligand and an interacting molecule the correlation function GDR can be separately analyzed and yields binding parameters of the interacting molecules. […]

Molecule	Vmax (calcineurin [1]) [µmol/min]	Km (calcineurin [1]; Michaelis-Menten kinetic assumed) [µM]	CuZnSOD activity per mg protein [2]	Percentage of FK506 inhibitable RII-phosphopeptide activity after 20 min compared with the activity at 0 min, constant protein (3 μg) (calcineurin [3])	Percentage of FK506 inhibitable RII-phosphopeptide activity after 20 min compared with the activity at 0 min, constant activity (1.67 U) (calcineurin [3])	hydrodynamic radius / apparent molecular weight after addition of calcineurin-A/B heterodimer [4] [kDa]
O=C1OC2(c3ccc(O)cc3Oc3cc(OP(=O)(O)O)ccc32)c2ccccc21 (stereo not shown) [FMP, fluoresceinmonophosphate]	400	40				
erythrocyte wild-type: purified human erythrocyte CuZnSOD (Sigma Aldrich) [reference compound]			(8330 U/mg)	57 +/− 10%	57 +/− 10%	
labeled CuZnSOD: recombinant CuZnSOD labeled with Oregon-Green-514 dye						90
recomb. mutation A4V: recombinant human CuZnSOD with substitution Ala-4 -> Val-4			(1820 U/mg)	22 +/− 27%	8 +/− 3%	
recomb. mutation D90A: recombinant human CuZnSOD with substitution Asp-90 -> Ala-90			(4590 U/mg)	42 +/− 17%	32 +/− 15%	180.000
recomb. mutation G93A: recombinant human CuZnSOD with substitution Gly-93 -> Ala-93			(2130 U/mg)	16 +/− 16%	21 +/− 22%	
recombinant wild-type: recombinant human wild-type copper/zinc superoxide dismutase expressed in E. coli			(6380 U/mg)	70 +/− 33%	56 +/− 22%	
